{"source": "patent EP4389751A1", "about": "“HETEROCYCLIC COMPOUNDS AND USES THEREOF” (Kumquat Biosciences Inc., priority 2021, dated 2024)"}
{"tested_on": "GP2D cells", "experiment": "Cell proliferation assay (CellTiter-Glo), K-Ras G12D cells", "type": "cell-based", "conditions": "GP2D cells (K-Ras G12D); read-out: Inhibition of GP2D Cells (IC50)", "description": "(§1) ASPC-1 (ATCC CRL-1682), Panc-10.05 (ATCC CRL-2547), A427, and GP2D (Sigma 95090714) cell lines comprise a G12D mutation and can be used to assess Ras cellular signaling in vitro, e.g., in response to the compounds herein. […] ASPC-1 culture medium is prepared with RPMI-1640 and 10% heat-inactivated FBS. Panc-10.05 culture medium is prepared with RPMI-1640, 10 Units/ml human recombinant insulin, and 10% FBS. A427 cell culture is prepared with RPMI-1640 and 10% heat-inactivated FBS. GP2D culture medium is prepared with DMEM with 2mM glutamine and 10% heat-inactivated FBS. A Cell Titer-Glo (CTG) luminescent based assay (Promega) is used to assess growth of the cells, as a measurement of the ability of the compounds herein to inhibit Ras signaling in the cells. The cells (e.g., 800 per well) are seeded in their respective culture medium in standard tissue culture-treated 384-well format plates (Falcon #08-772-116) or ultra-low attachment surface 384-well format plates (S-Bio # MS-9384UZ ). The day after plating, cells are treated with a dilution series (e.g., a 9 point 3-fold dilution series) of the compounds herein (e.g., approximately 40 µl final volume per well). Cell viability can be monitored (e.g., approximately 5 days later) according to the manufacturer's recommended instructions, where the CellTiter-Glo reagent is added (e.g., approximately 10 µl), vigorously mixed, covered, and placed on a plate shaker (e.g., approximately for 20 min) to ensure sufficient cell lysis prior to assessment of luminescent signal. The IC50 values are determined using the four parameter fit. The resulting IC50 value is a measurement of the ability of the compounds herein to reduce cell growth of Ras-driven cells (e.g., tumor cell lines) in vitro and/or in vivo.", "units": {"IC50": "nM"}}
{"compound": "C#Cc1c(F)ccc2cc(O)cc(-c3ncc4c(N5CC6CCC(C5)N6C(=O)n5cncn5)nc(OC[C@@]56CCCN5C[C@H](F)C6)nc4c3F)c12", "note": "[Compound A234, (3-(7-(8-ethynyl-7-fluoro-3-hydroxynaphthalen-1-yl)-8-fluoro-2-(((2R,7aS)-2-fluorotetrahydro-1H-pyrrolizin-7a(5H)-yl)methoxy)pyrido[4,3-d]pyrimidin-4-yl)-3,8-diazabicyclo[3.2.1]octan-8-yl)(1H-1,2,4-triazol-1-yl)methanone]", "IC50": "≤ 1000"}
{"compound": "N#Cc1c(N)sc2c(F)ccc(-c3c(Cl)cc4c(N5CC6CCC(C5)N6C(=O)n5ncnc5C#N)nc(OC[C@@]56CCCN5C[C@H](F)C6)nc4c3F)c12", "note": "[Compound A246]", "IC50": "≤ 1000"}
{"compound": "N#Cc1c(N)sc2c(F)ccc(-c3c(Cl)cc4c(N5CC6CCC(C5)N6C(=O)n5ccnc5C#N)nc(OC[C@@]56CCCN5C[C@H](F)C6)nc4c3F)c12", "note": "[Compound A220, 1-(3-(7-(2-amino-3-cyano-7-fluorobenzo[b]thiophen-4-yl)-6-chloro-8-fluoro-2-(((2R,7aS)-2-fluorotetrahydro-1H-pyrrolizin-7a(5H)-yl)methoxy)quinazolin-4-yl)-3,8-diazabicyclo[3.2. 1]octane-8-carbonyl)-1H-imidazole-2-carbonitrile]", "IC50": "≤ 1000"}
{"compound": "C#Cc1c(F)ccc2cc(O)cc(-c3ncc4c(N5CC6CCC(C5)N6C(=O)Nc5ncccn5)nc(OC[C@@]56CCCN5C[C@H](F)C6)nc4c3F)c12", "note": "[Compound A131, 3-(7-(8-ethynyl-7-fluoro-3-hydroxynaphthalen-1-yl)-8-fluoro-2-(((2R,7aS)-2-fluorotetrahydro-1H-pyrrolizin-7a(5H)-yl)methoxy)pyrido[4,3-d]pyrimidin-4-yl)-N-(pyrimidin-2-yl)-3,8-diazabicyclo[3.2. 1]octane-8-carboxamide]", "IC50": "≤ 1000"}
{"tested_on": "GP2D cells", "experiment": "Cell proliferation assay (CellTiter-Glo), K-Ras G12D cells", "type": "cell-based", "conditions": "GP2d, read-out: Inhibition of GP2D Cells (IC50)", "description": "as §1", "units": {"IC50": "nM"}}
{"compound": "N#Cc1cnn(C(=O)N2C3CCC2CN(c2nc(OC[C@@]45CCCN4C[C@H](F)C5)nc4c(F)c(-c5ccc(F)c6sc(N)c(C#N)c56)ccc24)C3)c1", "note": "[Compound A176, 1-(3-(7-(2-amino-3-cyano-7-fluorobenzo[b]thiophen-4-yl)-8-fluoro-2-(((2R,7aS)-2-fluorotetrahydro-1H-pyrrolizin-7a(5H)-yl)methoxy)quinazolin-4-yl)-3,8-diazabicyclo[3.2. 1]octane-8-carbonyl)-1H-pyrazole-4-carbonitrile]", "IC50": "1000 to 10000"}
{"compound": "N#Cc1c(N)sc2c(F)ccc(-c3c(Cl)cc4c(O[C@@H]5C[C@H]6CC[C@@H](C5)N6C(=O)n5cncn5)nc(OC[C@@]56CCCN5C[C@H](F)C6)nc4c3F)c12", "note": "[Compound A247, 4-(4-(((1R,3s,5S)-8-(1H-1,2,4-triazole-1-carbonyl)-8-azabicyclo[3.2.1]octan-3-yl)oxy)-6-chloro-8-fluoro-2-(((2R,7aS)-2-fluorotetrahydro-1H-pyrrolizin-7 a(5H)-yl)methoxy)quinazolin-7-yl)-2-amino-7-fluorobenzo[b]thiophene-3-carbonitrile]", "IC50": "1000 to 10000"}
{"target": "T1, K-Ras G12S (Homo sapiens, UniProt P01116, G12S)", "T1 construct": "made in house; host or cells: E. coli (e.g., BL21 (DE3))", "experiment": "HTRF assay of the K-Ras / SOS1 interaction", "type": "biochemical", "conditions": "IC50 (against K-Ras G12D) to IC50 (against K-Ras G12S)", "description": "This assay can be also used to assess a selective inhibition or reduction of signaling output of a mutant Ras protein relative to a wildtype, or relative to a different mutant Ras protein. For example, the equilibrium interaction of wildtype Kras or K-Ras mutant (e.g., wildtype or a mutant thereof including those mentioned in Example 6) with SOS1 (e.g., hSOS1) can be assessed as a proxy or an indication for a subject compound's ability to bind and inhibit Ras protein. HTRF assay detects from (i) a fluorescence resonance energy transfer (FRET) donor (e.g., antiGST-Europium) that is bound to GST-tagged K-Ras mutant to (ii) a FRET acceptor (e.g., anti-6His-XL665) bound to a His-tagged hSOS 1.\nThe assay buffer can contain ~5 mM HEPES pH 7.4, -150 mM NaCI, - 1 mM DTT, 0.05% BSA and 0.0025% (v/v) Igepal. A Ras working solution is prepared in an assay buffer containing typically a suitable amount of the protein construct (e.g., GST-tagged K-Ras mutant) and the FRET donor (e.g., antiGST-Eu(K) from Cisbio, France). A SOS1 working solution is prepared in an assay buffer containing suitable amount of the protein construct (e.g., His-hSOS1) and the FRET acceptor (e.g., anti-6His-XL665 from Cisbio, France). A suitable amount of the protein construct will depend on the range of activity or range of IC50 values being detected or under investigation. For detecting IC50 within a range of 500 nM, the protein constructs of the same range of molarity can be utilized.\nA fixed volume of DMSO with or without test compound is transferred into a 384-well plate. Ras working solution is added to all wells of the test plate. SOS1 working solution is added to all wells except for those that are subsequently filled the inhibitor control solution. Upon incubation for about 10 minutes or longer, the fluorescence is measured with a M1000Pro plate reader (Tecan) using HTRF detection (excitation 337nm, emission 1 : 620nm, emission 2: 665nm). Compounds are tested in duplicates at different concentrations (for example, 10 µM, 2.5 µM, 0.63 µM, 0.16 µM, 0.04 µM, 0.01 µM test compound). The ratiometric data (i.e., emission 2 divided by emission 1) is used to calculate IC50 values against Ras using GraphPad Prism (GraphPad software). Following this general procedure, samples were tested with or without a subject compound disclosed herein including compounds exemplified in Table 3 to assess their abilities to inhibit K-Ras G12S relative to another mutant (e.g., K-Ras G12D). Signaling output measured in terms of IC50 values can be obtained, a ratio of IC50 against one mutant relative to another mutant can be calculated. For instance, a selective reduction of K-Ras G12S signaling output can be evidenced by a ratio greater than one. In particular, a selective reduction of K-Ras G12S signaling relative to K-Ras G12D signaling is evidenced as the ratio of IC50 (against K-Ras G12D) to IC50 (against K-Ras G12S) is greater than 1. […]"}
{"compound": "CN1CCC[C@H]1COc1nc(N2CC3CCC(C2)N3C(=O)n2cc(C#N)cn2)c2cc(Cl)c(-c3ccc(F)c4sc(N)nc34)c(F)c2n1", "note": "[Compound A259, 1-(3-(7-(2-amino-7-fluorobenzo[d]thiazol-4-yl)-6-chloro-8-fluoro-2-(((S)-1-methylpyrrolidin-2-yl)methoxy)quinazolin-4-yl)-3,8-diazabicyclo[3.2.1]octane-8-carbonyl)-1H-pyrazole-4-carbonitrile]", "Ratio of IC50 KRAS G12D vs. IC50 KRAS G12S": "A (A: indicates that the ratio of IC50 against KrasG12D vs. IC50 against KrasG12S is 1-fold or greater)"}
{"compound": "Nc1nc2c(-c3c(Cl)cc4c(NC5CCN(C(=O)Nc6ccncn6)CC5)nc(OC[C@@]56CCCN5C[C@H](F)C6)nc4c3F)ccc(F)c2s1", "note": "[Compound A147, 4-((7-(2-amino-7-fluorobenzo[d]thiazol-4-yl)-6-chloro-8-fluoro-2-(((2R,7aS)-2-fluorotetrahydro-1H-pyrrolizin-7a(5H)-yl)methoxy)quinazolin-4-yl)amino)-N-(pyrimidin-4-yl)piperidine-1-carboxamide]", "Ratio of IC50 KRAS G12D vs. IC50 KRAS G12S": "A (A: indicates that the ratio of IC50 against KrasG12D vs. IC50 against KrasG12S is 1-fold or greater)"}
{"compound": "Nc1nc2c(-c3c(Cl)cc4c(N5CC(N6CCN(C(=O)n7cncn7)CC6)C5)nc(OC[C@@]56CCCN5C[C@H](F)C6)nc4c3F)ccc(F)c2s1", "note": "[Compound A166, (4-(1-(7-(2-amino-7-fluorobenzo[d]thiazol-4-yl)-6-chloro-8-fluoro-2-(((2R,7aS)-2-fluorotetrahydro-1H-pyrrolizin-7a(5H)-yl)methoxy)quinazolin-4-yl)azetidin-3-yl)piperazin-1-yl)(1H-1,2,4-triazol-1-yl)methanone]", "Ratio of IC50 KRAS G12D vs. IC50 KRAS G12S": "A (A: indicates that the ratio of IC50 against KrasG12D vs. IC50 against KrasG12S is 1-fold or greater)"}
{"compound": "1-(7-(7-(2-amino-7-fluorobenzo[d]thiazol-4-yl)-6-chloro-8-fluoro-2-(((2R,7aS)-2-fluorotetrahydro-1H-pyrrolizin-7a(5H)-yl)methoxy)quinazolm-4-yl)-2,7-diazaspiro[3.5]nonane-2-carbonyl)-1H-imidazole-4-carbonitrile [Compound A179]", "Ratio of IC50 KRAS G12D vs. IC50 KRAS G12S": "A (A: indicates that the ratio of IC50 against KrasG12D vs. IC50 against KrasG12S is 1-fold or greater)"}
{"compound": "CO[C@@H]1CN(C)C[C@H]1Oc1nc(N2CC3CCC(C2)N3C(=O)n2cc(C#N)cn2)c2cc(Cl)c(-c3ccc(F)c4sc(N)nc34)c(F)c2n1", "note": "[Compound A248, 1-(3-(7-(2-amino-7-fluorobenzo[d]thiazol-4-yl)-6-chloro-8-fluoro-2-(((3R,4R)-4-methoxy-1-methylpyrrolidin-3-yl)oxy)quinazolin-4-yl)-3,8-diazabicyclo[3.2.1]octane-8-carbonyl)-1H-pyrazole-4-carbonitrile]", "Ratio of IC50 KRAS G12D vs. IC50 KRAS G12S": "A (A: indicates that the ratio of IC50 against KrasG12D vs. IC50 against KrasG12S is 1-fold or greater)"}
{"compound": "N#Cc1ccn(C(=O)N2CC3CCC(C2)N3c2nc(OC[C@@]34CCCN3C[C@H](F)C4)nc3c(F)c(-c4ccc(F)c5sc(N)nc45)c(Cl)cc23)c1", "note": "[Compound A290, 1-(8-(7-(2-amino-7-fluorobenzo[d]thiazol-4-yl)-6-chloro-8-fluoro-2-(((2R,7aS)-2-fluorotetrahydro-1H-pyrrolizin-7a(5H)-yl)methoxy)quinazolin-4-yl)-3,8-diazabicyclo[3.2. 1]octane-3-carbonyl)-1H-pyrrole-3-carbonitrile]", "Ratio of IC50 KRAS G12D vs. IC50 KRAS G12S": "A (A: indicates that the ratio of IC50 against KrasG12D vs. IC50 against KrasG12S is 1-fold or greater)"}
